Among the test systems are P388/ADR leukemia; HCT-15 colon; HOP-18 NSCLC; A549 NSCLC; SN12K1 renal; P388 leukemia; MCF7 breast; NCI/ADR-RES ovarian; OVCAR-3 ovarian; SK-MEL-5 melanoma; MOLT-4 leukemia; U251 CNS; HOP-62 NSCLC; HCT-116 colon; K-562 leukemia; RPMI-8226 leukemia; IGROV1 ovarian; MALME-3M melanoma; LXFL 529 NSCLC; ACHN renal.
Holding throughout (experiment): NCI tumour cell line growth inhibition, 48 h

Consider five compounds from PubChem BioAssay (NCI).

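Following 48 hours of exposure in 96-well plates, responses at five concentrations were used to interpolate endpoints linearly. TGI is the concentration that stops growth completely.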

For `Cc1cc(N=Nc2ccc(N=Nc3c(O)c(S(=O)(=O)O)cc4cc(S(=O)(=O)O)ccc34)cc2C)ccc1N=Nc1ccc2cc(S(=O)(=O)O)cc(S(=O)(=O)O)c2c1`, the TGI in the test with P388/ADR leukemia was over 100 µM; in the test on HCT-15 colon it was over 100 µM; with HOP-18 NSCLC, over 100 µM; with A549 NSCLC, over 100 µM; with SN12K1 renal it was over 100 µM; in the test on P388 leukemia it was over 73.1 µM. For the same compound, the TGI with MCF7 breast, in the test with NCI/ADR-RES ovarian, in the test with OVCAR-3 ovarian, in the test with SK-MEL-5 melanoma, in the test on MOLT-4 leukemia and in the test with U251 CNS was over 100 µM throughout. Besides, the TGI in the test on HOP-62 NSCLC, in the test on HCT-116 colon, in the test with K-562 leukemia, with RPMI-8226 leukemia, in the test with IGROV1 ovarian and with MALME-3M melanoma was over 100 µM throughout.
On to `CC1=C2C(O)C(C(C)C(=O)NC(C)C)CCC2(C)C=CC1=O` (stereo not given), for which the TGI in the test with P388/ADR leukemia, in the test with HCT-15 colon, with HOP-18 NSCLC, with A549 NSCLC, with SN12K1 renal and in the test with P388 leukemia was over 100 µM throughout. The TGI with MCF7 breast, in the test on NCI/ADR-RES ovarian, in the test on OVCAR-3 ovarian, in the test on SK-MEL-5 melanoma, in the test with MOLT-4 leukemia and in the test with U251 CNS was over 100 µM throughout. Further, the TGI in the test on HOP-62 NSCLC, with HCT-116 colon, with K-562 leukemia, in the test with RPMI-8226 leukemia and in the test with IGROV1 ovarian was over 100 µM in each case.
Turning to `CC(C)(O)[C@H](CCO)O[Si](c1ccccc1)(c1ccccc1)C(C)(C)C`, the TGI in the test with HCT-15 colon came out at 20.7 µM; with LXFL 529 NSCLC, 23.8 µM; in the test with ACHN renal, 19.7 µM; with HOP-18 NSCLC it was 11.1 µM; with A549 NSCLC, 22.1 µM; in the test with OVCAR-3 ovarian, 23.9 µM. For the same compound, the TGI amounted to 27.2 µM in the test with SK-MEL-5 melanoma; 20 µM in the test with MOLT-4 leukemia; 24.9 µM in the test with U251 CNS; 17.6 µM in the test with HCT-116 colon; 23.7 µM in the test on K-562 leukemia; 49.4 µM with RPMI-8226 leukemia. Besides, the results for the TGI with IGROV1 ovarian and in the test with MALME-3M melanoma were 25.3 µM and 31.5 µM, respectively.
`COC(=O)NN1C(=O)C(=P(c2ccccc2)(c2ccccc2)c2ccccc2)C(C(=O)OC)=C1C`: the TGI in the test on HCT-15 colon, in the test with LXFL 529 NSCLC, in the test with ACHN renal, with HOP-18 NSCLC, with OVCAR-3 ovarian and in the test with SK-MEL-5 melanoma was over 100 µM in each case. The TGI with MOLT-4 leukemia, with U251 CNS, in the test with K-562 leukemia, in the test on RPMI-8226 leukemia, in the test on IGROV1 ovarian and in the test on MALME-3M melanoma was over 100 µM each time.
As to `Cn1c(=O)c2nc(N3CCCCC3)cnc2n(C)c1=O`, the TGI with HCT-15 colon, in the test on LXFL 529 NSCLC, in the test with ACHN renal, with A549 NSCLC, in the test on OVCAR-3 ovarian and with SK-MEL-5 melanoma was over 100 µM each time. The TGI with MOLT-4 leukemia, in the test with U251 CNS, with HOP-62 NSCLC, in the test on HCT-116 colon, in the test on K-562 leukemia and in the test with RPMI-8226 leukemia was over 100 µM in each case. Further, the TGI with IGROV1 ovarian and with MALME-3M melanoma was over 100 µM in each case.
